The structures appear in SMILES notation.

In general, IC50 refers to the concentration that inhibits the measured activity by half. In general, inhibition refers to the change of the read-out against control, counted positive when it falls.

The target of test [1] is Leucine-rich repeat serine/threonine-protein kinase 2 (Homo sapiens, UniProt Q5S007). Put plainly: LRRK2 Biochemical Assay.
Test [2] concerns the target D(2) dopamine receptor (Homo sapiens) (UniProt P14416). Particulars: Compound concentration 10.0 uM; call rule not given here.
In test [3] the target is T1, Alpha-2A adrenergic receptor (Homo sapiens) (UniProt P08913).
T1 sequence (whole entry): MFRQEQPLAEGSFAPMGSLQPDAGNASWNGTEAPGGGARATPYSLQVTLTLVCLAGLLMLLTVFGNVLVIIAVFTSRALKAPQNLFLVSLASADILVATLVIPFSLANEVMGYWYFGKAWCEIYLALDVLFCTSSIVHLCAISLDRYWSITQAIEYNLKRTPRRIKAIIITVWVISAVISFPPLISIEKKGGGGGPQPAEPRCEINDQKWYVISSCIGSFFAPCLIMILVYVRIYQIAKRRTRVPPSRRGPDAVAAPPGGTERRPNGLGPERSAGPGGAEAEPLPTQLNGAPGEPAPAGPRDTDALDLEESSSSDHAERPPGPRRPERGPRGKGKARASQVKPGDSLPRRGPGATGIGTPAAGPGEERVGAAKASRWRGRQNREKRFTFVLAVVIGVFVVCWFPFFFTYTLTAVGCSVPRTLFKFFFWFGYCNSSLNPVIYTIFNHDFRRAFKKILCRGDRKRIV
Put plainly: Adrenergic alpha2A Eurofins-Panlabs radioligand binding assay. More on the design: ligand concentration 1 nM, non-specific ligand with concentration 10 µM WB-4101, incubation time 60 min, incubation temperature 25 °C. The settings on record: Compound concentration 10.0 uM.

The target of test [4] is Serine/threonine-protein kinase MRCK alpha (Homo sapiens) (UniProt Q5VT25). Put plainly: CDC42 BPA (MRCKA) Kinase screen. Particulars: Compound concentration 1.0 uM.
The target in test [5] is Eukaryotic elongation factor 2 kinase (Homo sapiens) (UniProt O00418). The test is described as follows: EEF2K Kinase screen. Particulars: Compound concentration 1.0 uM.
For test [6], the target named is T2, Ephrin type-B receptor 4 (Homo sapiens) (UniProt P54760).
T2 sequence (whole entry): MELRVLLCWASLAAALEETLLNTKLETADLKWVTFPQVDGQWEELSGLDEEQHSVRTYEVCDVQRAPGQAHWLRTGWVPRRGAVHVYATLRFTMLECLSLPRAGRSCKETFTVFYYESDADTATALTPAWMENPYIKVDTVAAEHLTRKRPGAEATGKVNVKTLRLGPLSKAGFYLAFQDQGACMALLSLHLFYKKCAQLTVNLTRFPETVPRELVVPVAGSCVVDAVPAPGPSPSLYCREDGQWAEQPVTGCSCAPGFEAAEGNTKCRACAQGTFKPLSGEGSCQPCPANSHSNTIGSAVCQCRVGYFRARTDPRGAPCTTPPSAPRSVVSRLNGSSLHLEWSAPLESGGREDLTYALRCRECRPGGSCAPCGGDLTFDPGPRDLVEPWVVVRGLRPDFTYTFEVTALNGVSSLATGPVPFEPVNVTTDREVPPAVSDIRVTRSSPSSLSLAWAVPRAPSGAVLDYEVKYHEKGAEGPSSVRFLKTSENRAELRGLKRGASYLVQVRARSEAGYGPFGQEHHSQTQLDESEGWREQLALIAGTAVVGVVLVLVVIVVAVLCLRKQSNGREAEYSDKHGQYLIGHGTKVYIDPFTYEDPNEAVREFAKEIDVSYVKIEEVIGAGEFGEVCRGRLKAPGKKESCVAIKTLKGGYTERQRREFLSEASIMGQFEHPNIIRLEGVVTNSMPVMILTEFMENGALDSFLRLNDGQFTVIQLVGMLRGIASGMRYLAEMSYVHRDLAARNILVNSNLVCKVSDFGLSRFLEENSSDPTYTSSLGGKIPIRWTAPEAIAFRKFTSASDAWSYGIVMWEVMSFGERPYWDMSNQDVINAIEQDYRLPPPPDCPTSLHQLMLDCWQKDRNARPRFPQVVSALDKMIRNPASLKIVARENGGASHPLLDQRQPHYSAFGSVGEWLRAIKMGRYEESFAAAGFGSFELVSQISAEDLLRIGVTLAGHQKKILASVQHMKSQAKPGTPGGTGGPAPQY
The test is described as follows: EPHB4 Kinase screen. The settings on record: Compound concentration 1.0 uM.

Test [7] has as its target T3, Dual specificity mitogen-activated protein kinase kinase 6 (Homo sapiens) (UniProt P52564).
T3 sequence (whole entry): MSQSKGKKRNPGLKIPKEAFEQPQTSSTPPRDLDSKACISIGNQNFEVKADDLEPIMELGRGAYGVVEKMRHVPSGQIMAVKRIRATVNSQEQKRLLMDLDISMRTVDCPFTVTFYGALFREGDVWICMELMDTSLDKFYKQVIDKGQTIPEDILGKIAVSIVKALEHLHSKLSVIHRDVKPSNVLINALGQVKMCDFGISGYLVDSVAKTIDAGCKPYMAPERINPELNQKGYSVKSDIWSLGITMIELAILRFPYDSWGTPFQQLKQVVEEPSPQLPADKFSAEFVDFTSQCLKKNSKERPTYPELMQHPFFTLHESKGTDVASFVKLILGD
Put plainly: MAP2K6 (MKK6) Kinase screen. Particulars: Compound concentration 1.0 uM.

Test [8] deals with Mitogen-activated protein kinase kinase kinase 10 (Homo sapiens) (UniProt Q02779). The test is described as follows: MAP3K10 (MLK2) Kinase screen. Particulars: Compound concentration 1.0 uM.
Chain of Mitogen-activated protein kinase kinase kinase 10 (Homo sapiens) (Q02779 whole entry, looked up): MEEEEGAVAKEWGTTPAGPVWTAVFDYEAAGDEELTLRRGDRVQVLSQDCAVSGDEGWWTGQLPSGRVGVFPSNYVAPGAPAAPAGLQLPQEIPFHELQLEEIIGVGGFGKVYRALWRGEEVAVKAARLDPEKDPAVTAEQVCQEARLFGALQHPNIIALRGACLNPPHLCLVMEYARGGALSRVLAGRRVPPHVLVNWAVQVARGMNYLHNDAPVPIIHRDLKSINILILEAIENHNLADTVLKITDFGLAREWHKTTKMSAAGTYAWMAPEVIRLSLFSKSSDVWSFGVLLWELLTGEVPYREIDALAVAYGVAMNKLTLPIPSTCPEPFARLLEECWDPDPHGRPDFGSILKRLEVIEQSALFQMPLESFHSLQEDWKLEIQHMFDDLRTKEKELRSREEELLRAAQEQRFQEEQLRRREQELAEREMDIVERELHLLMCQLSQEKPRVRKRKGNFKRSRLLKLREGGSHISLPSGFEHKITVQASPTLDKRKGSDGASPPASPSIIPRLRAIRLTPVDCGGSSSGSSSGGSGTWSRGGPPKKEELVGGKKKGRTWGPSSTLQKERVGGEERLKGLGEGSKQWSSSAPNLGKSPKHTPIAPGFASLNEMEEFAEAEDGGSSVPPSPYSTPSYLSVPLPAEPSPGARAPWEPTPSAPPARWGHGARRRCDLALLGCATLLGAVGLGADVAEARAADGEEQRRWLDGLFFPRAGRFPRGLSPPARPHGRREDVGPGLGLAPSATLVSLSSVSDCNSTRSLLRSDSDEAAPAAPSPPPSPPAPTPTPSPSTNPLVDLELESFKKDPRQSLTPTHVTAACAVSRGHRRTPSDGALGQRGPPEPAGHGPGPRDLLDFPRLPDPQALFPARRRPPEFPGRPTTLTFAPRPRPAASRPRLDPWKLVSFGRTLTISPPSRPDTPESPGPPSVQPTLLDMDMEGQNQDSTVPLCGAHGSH
Test [9] addresses MAP/microtubule affinity-regulating kinase 3 (Homo sapiens) (UniProt P27448). Put plainly: MARK3 Kinase screen. The settings on record: Compound concentration 1.0 uM.
The target in test [10] is Prostacyclin receptor (Homo sapiens) (UniProt P43119). The test is described as follows: Prostanoid IP Eurofins-Panlabs radioligand binding assay. Particulars: Compound concentration 10.0 uM.
Chain of Prostacyclin receptor (Homo sapiens) (P43119 whole entry): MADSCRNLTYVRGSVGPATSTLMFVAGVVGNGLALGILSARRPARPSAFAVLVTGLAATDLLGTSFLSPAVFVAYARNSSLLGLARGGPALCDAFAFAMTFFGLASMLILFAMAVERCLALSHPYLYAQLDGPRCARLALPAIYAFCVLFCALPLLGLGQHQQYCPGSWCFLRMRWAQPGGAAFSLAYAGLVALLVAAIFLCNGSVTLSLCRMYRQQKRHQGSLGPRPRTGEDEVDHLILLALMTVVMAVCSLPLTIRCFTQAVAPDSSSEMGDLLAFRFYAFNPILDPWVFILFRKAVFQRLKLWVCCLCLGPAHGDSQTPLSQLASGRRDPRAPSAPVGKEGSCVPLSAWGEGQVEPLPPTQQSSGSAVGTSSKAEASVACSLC
Test [11] addresses Glutamate NMDA receptor (Rattus norvegicus) (UniProt P35439+Q00959+Q00960+Q00961+Q62645+Q8VHN2+Q9R1M7). The settings on record: Compound concentration 10.0 uM.

Chain of Leucine-rich repeat serine/threonine-protein kinase 2 (Q5S007 whole entry): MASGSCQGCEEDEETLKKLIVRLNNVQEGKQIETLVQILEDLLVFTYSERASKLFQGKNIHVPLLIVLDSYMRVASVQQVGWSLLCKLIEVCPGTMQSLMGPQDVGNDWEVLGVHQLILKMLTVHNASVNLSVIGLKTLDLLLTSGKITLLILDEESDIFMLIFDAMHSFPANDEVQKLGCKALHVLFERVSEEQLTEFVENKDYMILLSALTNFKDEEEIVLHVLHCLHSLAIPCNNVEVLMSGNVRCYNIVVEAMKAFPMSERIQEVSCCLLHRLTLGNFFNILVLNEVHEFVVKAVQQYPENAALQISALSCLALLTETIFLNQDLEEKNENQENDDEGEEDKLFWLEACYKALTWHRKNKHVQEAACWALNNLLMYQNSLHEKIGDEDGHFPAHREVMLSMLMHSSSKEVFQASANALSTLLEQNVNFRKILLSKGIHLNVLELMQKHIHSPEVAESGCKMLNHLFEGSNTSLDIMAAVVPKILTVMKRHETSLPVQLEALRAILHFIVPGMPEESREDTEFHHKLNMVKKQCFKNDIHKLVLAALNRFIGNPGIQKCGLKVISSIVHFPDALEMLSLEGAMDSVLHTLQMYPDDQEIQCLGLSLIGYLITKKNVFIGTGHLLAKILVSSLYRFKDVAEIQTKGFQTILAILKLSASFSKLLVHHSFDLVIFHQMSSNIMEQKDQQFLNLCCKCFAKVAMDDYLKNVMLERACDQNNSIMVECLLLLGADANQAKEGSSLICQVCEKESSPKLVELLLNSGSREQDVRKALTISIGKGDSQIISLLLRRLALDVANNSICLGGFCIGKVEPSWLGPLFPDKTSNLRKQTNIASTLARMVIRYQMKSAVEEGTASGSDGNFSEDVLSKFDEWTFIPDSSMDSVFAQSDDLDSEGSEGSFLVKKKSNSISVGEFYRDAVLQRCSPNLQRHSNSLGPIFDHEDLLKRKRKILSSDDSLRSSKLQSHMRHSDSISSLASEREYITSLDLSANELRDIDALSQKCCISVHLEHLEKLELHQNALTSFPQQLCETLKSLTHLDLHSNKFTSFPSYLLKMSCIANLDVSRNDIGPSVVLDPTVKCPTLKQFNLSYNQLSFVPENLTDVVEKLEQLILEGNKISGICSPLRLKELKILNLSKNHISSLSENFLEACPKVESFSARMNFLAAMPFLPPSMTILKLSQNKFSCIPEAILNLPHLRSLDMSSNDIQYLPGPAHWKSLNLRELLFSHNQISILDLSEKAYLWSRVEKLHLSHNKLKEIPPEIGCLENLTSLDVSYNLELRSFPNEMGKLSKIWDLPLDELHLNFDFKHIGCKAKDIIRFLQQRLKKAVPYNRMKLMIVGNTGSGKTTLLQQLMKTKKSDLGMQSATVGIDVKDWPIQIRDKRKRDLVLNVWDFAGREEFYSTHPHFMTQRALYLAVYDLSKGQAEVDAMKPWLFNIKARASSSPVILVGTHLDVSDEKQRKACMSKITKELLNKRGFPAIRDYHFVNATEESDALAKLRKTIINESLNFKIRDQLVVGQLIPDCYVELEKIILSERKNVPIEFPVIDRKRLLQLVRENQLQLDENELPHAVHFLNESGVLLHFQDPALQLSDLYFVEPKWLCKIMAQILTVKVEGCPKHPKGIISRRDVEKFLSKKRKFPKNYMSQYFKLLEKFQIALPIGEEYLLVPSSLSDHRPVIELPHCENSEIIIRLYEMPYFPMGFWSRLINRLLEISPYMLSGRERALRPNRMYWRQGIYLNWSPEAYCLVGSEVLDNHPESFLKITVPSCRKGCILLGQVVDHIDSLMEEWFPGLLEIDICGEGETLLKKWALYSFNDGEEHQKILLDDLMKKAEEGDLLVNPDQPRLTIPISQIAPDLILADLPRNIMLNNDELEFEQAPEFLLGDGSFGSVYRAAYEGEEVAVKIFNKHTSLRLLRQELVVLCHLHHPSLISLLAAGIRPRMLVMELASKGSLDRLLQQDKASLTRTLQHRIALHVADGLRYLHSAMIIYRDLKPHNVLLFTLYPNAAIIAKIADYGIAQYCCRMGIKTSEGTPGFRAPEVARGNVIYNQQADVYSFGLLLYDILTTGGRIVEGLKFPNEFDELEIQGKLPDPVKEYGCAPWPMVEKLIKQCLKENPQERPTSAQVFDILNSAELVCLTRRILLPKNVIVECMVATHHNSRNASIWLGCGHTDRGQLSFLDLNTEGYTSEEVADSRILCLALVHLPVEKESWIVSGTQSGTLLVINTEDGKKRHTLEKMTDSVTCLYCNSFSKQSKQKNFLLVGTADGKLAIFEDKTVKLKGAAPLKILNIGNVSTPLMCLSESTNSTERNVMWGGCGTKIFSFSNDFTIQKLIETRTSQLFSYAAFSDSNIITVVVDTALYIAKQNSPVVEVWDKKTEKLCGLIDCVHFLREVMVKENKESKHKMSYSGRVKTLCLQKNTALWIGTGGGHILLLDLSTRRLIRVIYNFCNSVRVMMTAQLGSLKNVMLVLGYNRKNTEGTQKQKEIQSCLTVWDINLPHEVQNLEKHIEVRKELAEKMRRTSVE
Chain of MAP/microtubule affinity-regulating kinase 3 (Homo sapiens) (P27448 whole entry, looked up): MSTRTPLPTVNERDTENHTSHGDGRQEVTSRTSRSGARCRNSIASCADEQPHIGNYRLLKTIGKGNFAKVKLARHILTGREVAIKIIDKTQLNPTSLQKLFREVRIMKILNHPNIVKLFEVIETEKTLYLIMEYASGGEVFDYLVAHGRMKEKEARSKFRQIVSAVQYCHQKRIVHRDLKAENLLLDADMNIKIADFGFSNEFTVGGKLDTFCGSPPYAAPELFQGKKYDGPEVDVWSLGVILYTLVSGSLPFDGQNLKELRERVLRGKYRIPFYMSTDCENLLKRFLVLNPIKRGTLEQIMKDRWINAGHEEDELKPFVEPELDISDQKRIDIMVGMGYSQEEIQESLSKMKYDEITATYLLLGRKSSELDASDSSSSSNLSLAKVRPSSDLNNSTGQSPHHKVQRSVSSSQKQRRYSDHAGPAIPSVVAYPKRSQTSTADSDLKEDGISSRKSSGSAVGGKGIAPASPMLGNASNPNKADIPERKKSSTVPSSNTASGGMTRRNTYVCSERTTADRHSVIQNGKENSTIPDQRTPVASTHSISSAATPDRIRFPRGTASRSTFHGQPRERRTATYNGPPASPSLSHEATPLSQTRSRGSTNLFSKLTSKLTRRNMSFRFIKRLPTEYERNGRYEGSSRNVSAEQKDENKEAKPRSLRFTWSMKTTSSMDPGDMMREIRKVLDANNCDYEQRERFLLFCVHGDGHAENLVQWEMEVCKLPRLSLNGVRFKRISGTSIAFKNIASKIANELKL
Chain of D(2) dopamine receptor (Homo sapiens) (P14416 whole entry): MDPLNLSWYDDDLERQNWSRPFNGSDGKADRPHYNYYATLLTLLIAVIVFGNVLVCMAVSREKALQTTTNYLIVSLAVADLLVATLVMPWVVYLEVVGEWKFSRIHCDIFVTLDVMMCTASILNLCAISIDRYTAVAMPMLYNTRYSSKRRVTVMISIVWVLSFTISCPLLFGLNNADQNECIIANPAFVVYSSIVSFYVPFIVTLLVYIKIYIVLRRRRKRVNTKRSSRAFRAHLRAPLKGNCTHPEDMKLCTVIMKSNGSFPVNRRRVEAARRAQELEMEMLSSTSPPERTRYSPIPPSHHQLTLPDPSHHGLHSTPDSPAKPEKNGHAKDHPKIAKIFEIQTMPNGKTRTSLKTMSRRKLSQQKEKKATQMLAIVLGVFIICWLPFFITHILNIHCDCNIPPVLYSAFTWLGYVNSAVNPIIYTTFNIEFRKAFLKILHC

Turning to `C[C@@H]1CN(c2cc(-c3nn(C)c4ccc(OC5(C)CC5)cc34)ncn2)C[C@H](C)O1` [MLi-2-NC], the IC50 in [1] is 6.48 µM (not active). In test [2], the inhibition is -0.18%.

Take `C[C@@H]1CN(c2cc(-c3n[nH]c4ccc(OC5(C)CC5)cc34)ncn2)C[C@H](C)O1` [MLi-2]: the inhibition was 6% in test [3]; 2.46% in [4]; 4.28% in test [5]; 2.23% in test [6]; -2.67% in test [7]; 0.659% in test [8]. In addition, the inhibition in [9] was 1.57%; in test [10] it was -9%; in test [11], 4%.
